Twelve compounds from ChEMBL document CHEMBL1201862, “PubChem BioAssay data set” (2004) can be followed below.

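Interpolation was linear, between the two tested concentrations surrounding the appropriate level; five concentrations were tested over 48 hours in 96-well plates. GI50 marks 50% less growth.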 Calls of active or inactive are those of the source. Cut-off read from the data, not from the text of the source: active = GI50 up to about 1.1 µM and inactive = higher.

Common to all, as to assay: NCI anticancer screen, dose series, 48 h
Experiment [1] relates to SN12C.
Experiment [2] deals with RPMI-8226.
Experiment [3] has as its system SF-295.
Experiment [4] has as its system M14.
Experiment [5] has as its system ACHN.
For experiment [6], the system named is OVCAR-8.
The subject of experiment [7] is K562.
For experiment [8], the system named is SK-OV-3.
Experiment [9] deals with SF-539.
The subject of experiment [10] is M19-MEL.
The subject of experiment [11] is EKVX.
Experiment [12] relates to NCI-H522.
Experiment [13] deals with OVCAR-4.
Experiment [14] has as its system A498.
Experiment [15] concerns T47D.
The test system of experiment [16] is MCF7.
Experiment [17] relates to Hs-578T.
The subject of experiment [18] is PC-3.
The subject of experiment [19] is NCI/ADR-RES.
Experiment [20] has as its system MDA-MB-435.

Turning to `Oc1cccc(-c2cccc(O)n2)n1`, the GI50 in [1], in [2], in experiment [3], in [4], in experiment [5] and in experiment [6] was > 100 µM (inactive) each time. The GI50 in [7], in experiment [8], in experiment [9], in [10] and in experiment [11] was > 100 µM (inactive) each time.

In the case of `CC(=O)OC1(Sc2ccccc2)CC2[C@H]3COC(C)(C)O[C@H]3CC[C@@]2(C)CC1=O` (stereo not given in full), the GI50 was 23.4 µM (inactive) in experiment [1]; 21.1 µM (inactive) in experiment [2]; 55.8 µM (inactive) in experiment [3]; 34.6 µM (inactive) in experiment [4]; 41.5 µM (inactive) in experiment [5]; 74.8 µM (inactive) in [6]. Moreover, the GI50 in [12] is 32.3 µM (inactive); in experiment [7] it was 30.1 µM (inactive); in experiment [8], 44.2 µM (inactive); in experiment [9] it was 26.1 µM (inactive); in [10] it was 50.9 µM (inactive); in experiment [11], 57.7 µM (inactive). Besides, in experiment [13], the GI50 is 71.6 µM (inactive).

In the case of `COC(=O)n1c(CBr)c(Br)c2ccccc21`, the GI50 in experiment [2] was 21 µM (inactive); in experiment [3], 23.7 µM (inactive); in experiment [4], > 100 µM (inactive); in experiment [5], 18.6 µM (inactive); in experiment [6], 48.2 µM (inactive); in experiment [12] it was 17.2 µM (inactive). Also, the GI50 was 25.4 µM (inactive) in experiment [7], 31.3 µM (inactive) in [9], 61.7 µM (inactive) in experiment [10] and 25.8 µM (inactive) in experiment [13].

As for `O/N=C1\CCc2cc3c(cc21)CCC3`, the GI50 was > 100 µM (inactive) in [14]; > 100 µM (inactive) in experiment [1]; 86.3 µM (inactive) in [15]; > 100 µM (inactive) in [2]; > 100 µM (inactive) in experiment [3]; > 100 µM (inactive) in experiment [4]. The GI50 in experiment [16] is > 100 µM (inactive); in [17], 34.9 µM (inactive); in [5] it was > 100 µM (inactive); in experiment [18], > 100 µM (inactive); in experiment [6], > 100 µM (inactive); in experiment [19] it was > 100 µM (inactive). For the same compound, the GI50 was > 100 µM (inactive) in [12]; > 100 µM (inactive) in experiment [7]; > 100 µM (inactive) in [8]; > 100 µM (inactive) in experiment [9]; > 100 µM (inactive) in experiment [20]; 5.65 µM (inactive) in experiment [11]. The GI50 in experiment [13] is > 100 µM (inactive).

On to `O=C1C(Cl)C(c2cc3cc(Br)ccc3nc2Cl)N1c1ccc(F)c(Cl)c1` (stereo not given), for which the GI50 was 5.61 µM (inactive) in [14]; 7.73 µM (inactive) in experiment [1]; 8.09 µM (inactive) in experiment [15]; 1.36 µM (inactive) in [2]; 7.14 µM (inactive) in [3]; 9.42 µM (inactive) in [4]. Besides, the GI50 in experiment [16] is 5.96 µM (inactive); in experiment [17], 20.1 µM (inactive); in experiment [5], 8.53 µM (inactive); in experiment [18], 3.59 µM (inactive); in experiment [6], 6.14 µM (inactive); in experiment [19], 5.57 µM (inactive). Moreover, the GI50 in experiment [12] is 0.275 µM (active); in experiment [7], 3.07 µM (inactive); in experiment [8], 6.75 µM (inactive); in [9] it was 1.51 µM (inactive); in [20] it was 5.64 µM (inactive); in [11] it was 1.42 µM (inactive). Moreover, the GI50 in [13] was 1.76 µM (inactive).

With `C=CCCCCOC1C=CC(O)C(CO)O1` (stereo not given), the GI50 in experiment [14], in experiment [1], in [15], in experiment [2], in experiment [3] and in [4] was > 100 µM (inactive) in each case. Also, the GI50 in experiment [16] is > 100 µM (inactive); in [17], 30.1 µM (inactive); in experiment [5], > 100 µM (inactive); in experiment [18], > 100 µM (inactive); in experiment [6], > 100 µM (inactive); in experiment [19], > 100 µM (inactive). In addition, the GI50 in experiment [12], in [7], in experiment [8], in [9], in experiment [20] and in experiment [11] was > 100 µM (inactive) throughout. Moreover, in experiment [13], the GI50 is > 100 µM (inactive).

Turning to `O=C(O)c1cc(O)c2c(c1)C([C@@H]1c3cccc(O)c3C(=O)c3c(O)cc(C(=O)O)cc31)c1cccc(O)c1C2=O` (stereo not given in full), the GI50 was 22.7 µM (inactive) in experiment [14]; 34.7 µM (inactive) in experiment [1]; 59.6 µM (inactive) in [15]; 32.9 µM (inactive) in experiment [2]; 34.7 µM (inactive) in [3]; > 10 µM (inactive) in experiment [4]. Moreover, the GI50 is 37 µM (inactive) in experiment [16]; 24.9 µM (inactive) in experiment [17]; 81.5 µM (inactive) in [5]; 36.1 µM (inactive) in experiment [18]; 33.4 µM (inactive) in experiment [6]; 43.8 µM (inactive) in [19]. Further, the GI50 in experiment [12] is 19.7 µM (inactive); in experiment [7], 23.8 µM (inactive); in [8] it was > 100 µM (inactive); in experiment [9], 19.5 µM (inactive); in experiment [20], 24.6 µM (inactive); in [11], 37.2 µM (inactive). Besides, the GI50 in [13] is > 100 µM (inactive).

For `Cc1nc2ccccc2c(=O)n1NC(=O)c1ccc(CS)cc1`, the GI50 is 11.2 µM (inactive) in experiment [14]; 11.9 µM (inactive) in [1]; 16.7 µM (inactive) in [15]; 11.1 µM (inactive) in [2]; 25.8 µM (inactive) in experiment [3]; 12.2 µM (inactive) in experiment [4]. Further, the GI50 in [16] was 5.64 µM (inactive); in experiment [17], 16.6 µM (inactive); in experiment [5], 10.9 µM (inactive); in [18], 1.74 µM (inactive); in experiment [6], 20.8 µM (inactive); in [19], 28.6 µM (inactive). Moreover, the GI50 in [12] is 12.3 µM (inactive); in experiment [7], 6.21 µM (inactive); in experiment [8], 17.8 µM (inactive); in [9], 12.9 µM (inactive); in experiment [20] it was 12.9 µM (inactive); in experiment [11], 4.76 µM (inactive). Also, in experiment [13], the GI50 is 15.1 µM (inactive).

Consider `CN1CCC(OC(=O)Oc2ccccc2)(c2ccccc2)CC1`, for which the GI50 was 23.8 µM (inactive) in [14]; 15.4 µM (inactive) in [1]; 26.6 µM (inactive) in experiment [15]; 15.5 µM (inactive) in [2]; 24 µM (inactive) in experiment [3]; 15 µM (inactive) in [4]. Moreover, the GI50 is 20 µM (inactive) in experiment [16]; 28.5 µM (inactive) in experiment [17]; 34.9 µM (inactive) in experiment [5]; 18 µM (inactive) in experiment [18]; 17.5 µM (inactive) in [6]; 16.6 µM (inactive) in experiment [19]. The GI50 in experiment [12] is 24 µM (inactive); in experiment [7] it was 24.7 µM (inactive); in experiment [8] it was 24.9 µM (inactive); in [9], 13.6 µM (inactive); in experiment [20], 17.3 µM (inactive); in experiment [11], 45.8 µM (inactive). The GI50 in experiment [13] was 18.3 µM (inactive).

With `CC/C(Cl)=N\OC(=O)Nc1ccc(F)cc1F`, the GI50 was 28.3 µM (inactive) in experiment [14]; 5.73 µM (inactive) in experiment [1]; 6.28 µM (inactive) in experiment [15]; 1.49 µM (inactive) in experiment [2]; 26.4 µM (inactive) in experiment [3]; 7.6 µM (inactive) in [4]. Moreover, the GI50 is 7.78 µM (inactive) in experiment [16]; 32.2 µM (inactive) in experiment [17]; 1.89 µM (inactive) in [5]; 17.7 µM (inactive) in experiment [18]; 19.8 µM (inactive) in experiment [6]; 17.8 µM (inactive) in experiment [19]. The GI50 was 1.54 µM (inactive) in experiment [12]; 0.244 µM (active) in experiment [7]; 19.3 µM (inactive) in [8]; 7.01 µM (inactive) in experiment [9]; 17 µM (inactive) in experiment [20]; 8.55 µM (inactive) in [11]. In addition, the GI50 in experiment [13] was 17.9 µM (inactive).

Regarding `CN1C(=O)C(=CNc2ccccc2[N+](=O)[O-])C(=O)N(C)C1=O`, the GI50 in experiment [14], in experiment [1], in [15], in [2], in [3] and in experiment [4] was > 100 µM (inactive) in each case. For the same compound, the GI50 in [16] was 10 µM (inactive); in experiment [17] it was > 100 µM (inactive); in experiment [5] it was > 100 µM (inactive); in [18], > 100 µM (inactive); in [6] it was > 100 µM (inactive); in experiment [19] it was > 100 µM (inactive). Also, the GI50 in experiment [12], in [7], in experiment [8], in [9], in [20] and in experiment [11] was > 100 µM (inactive) in each case. Besides, the GI50 in experiment [13] was > 100 µM (inactive).

For the compound `N=C(N)c1ccc(/N=N\c2c(O)ccc3c2[nH]c2ccccc23)cc1`, the GI50 in experiment [14] is 77.3 µM (inactive); in [1] it was 16.4 µM (inactive); in experiment [15], 2.43 µM (inactive); in experiment [2], 2.19 µM (inactive); in experiment [3], > 51.5 µM (inactive); in experiment [4], 36.1 µM (inactive). For the same compound, the GI50 is 1.75 µM (inactive) in experiment [16]; 63.8 µM (inactive) in experiment [17]; 41.6 µM (inactive) in experiment [5]; 9.73 µM (inactive) in experiment [18]; 2.46 µM (inactive) in [6]; 58.1 µM (inactive) in experiment [19]. Further, the GI50 was > 53.2 µM (inactive) in [12]; 1.63 µM (inactive) in experiment [7]; 25.2 µM (inactive) in [8]; > 49.5 µM (inactive) in experiment [9]; 3.39 µM (inactive) in experiment [20]; > 59.6 µM (inactive) in [11]. For the same compound, in [13], the GI50 is 6.14 µM (inactive).
